Measurements from patent publication US4080471A, “Use of substituted isopropylaminopropanols for inducing inotropic effects of the human heart” (priority 1976, dated 1978).
“Also recorded” adds a separate entry of the source.

Tests used:
[1] = molecular target: T1, beta-receptors of the heart (Felis catus, UniProt Q9TST6); test: Beta-adrenergic (chronotropic, heart frequency) effects on anesthetized cat pretreated with reserpine; type: in vivo
T1 construct: Heart frequency was registered with a cardiotachometer triggered by the ECG; from tissue; host or cells: heart of the anaesthetized cat in vivo (reserpine-pretreated, vagotomized)
T1 sequence (Q9TST6 whole entry): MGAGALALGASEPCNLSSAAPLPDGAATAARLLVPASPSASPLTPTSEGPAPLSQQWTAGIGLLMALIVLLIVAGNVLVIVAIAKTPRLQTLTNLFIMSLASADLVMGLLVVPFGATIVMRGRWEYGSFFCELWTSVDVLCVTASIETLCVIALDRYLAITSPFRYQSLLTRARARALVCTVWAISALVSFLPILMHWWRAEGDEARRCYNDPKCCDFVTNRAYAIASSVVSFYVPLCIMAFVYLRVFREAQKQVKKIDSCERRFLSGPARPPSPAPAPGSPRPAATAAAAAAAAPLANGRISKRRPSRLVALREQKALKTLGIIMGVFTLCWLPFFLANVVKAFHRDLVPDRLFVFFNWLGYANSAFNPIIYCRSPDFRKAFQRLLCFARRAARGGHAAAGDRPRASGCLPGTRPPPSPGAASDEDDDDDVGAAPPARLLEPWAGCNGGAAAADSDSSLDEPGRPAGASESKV
Method: (§1) Chronotropic (heart frequency) and vasodilatating effects:
(§2) When the cats had been anaesthetized with Mebumal® 30 mg/kg bodyweight i.p., an artificial air respiration was started. The two vagus nerves were cut and the blood passing through a femoral artery was fed via a catheter and a pump back to the distal part of the vessel. Parallelly, a pressure transducer was connected by which the perfusion pressure was registered. At a perfusion with a constant flow, the perfusion pressure is directly proportional to the peripheral resistance of the vascular bed of the hind limb. Blood circulation in the foot was interrupted with a ligature. Heart frequency was registered with a cardiotachometer triggered by the ECG. The substances were administered intravenously in increasing doses and the dose-response curves of the heart frequency and the vasodilatation were constructed.
(§3) Further, the dose ratios (ED50 for vasodilatation/ED50 for heart frequency) are calculated. A dose ratio >1 indicates a heart selective effect.

[2] = tested on: beta-receptors of the heart; test: as above; type: in vivo; conditions: dose ratio >1 indicates a heart selective effect
Method: as §1, §2, §3

[3] = molecular target: T2, beta-receptors of the blood vessels (Felis catus, UniProt Q9TST5); test: Vasodilatating effect (hind limb perfusion pressure) on anesthetized cat pretreated with reserpine; type: in vivo; conditions: cat, iv, read-out: ED50 Vasodilation
T2 construct: from tissue; host or cells: hind-limb vascular bed of the anaesthetized cat in vivo (constant-flow perfusion, reserpine-pretreated)
T2 sequence (Q9TST5 whole entry, the tested form may be a part): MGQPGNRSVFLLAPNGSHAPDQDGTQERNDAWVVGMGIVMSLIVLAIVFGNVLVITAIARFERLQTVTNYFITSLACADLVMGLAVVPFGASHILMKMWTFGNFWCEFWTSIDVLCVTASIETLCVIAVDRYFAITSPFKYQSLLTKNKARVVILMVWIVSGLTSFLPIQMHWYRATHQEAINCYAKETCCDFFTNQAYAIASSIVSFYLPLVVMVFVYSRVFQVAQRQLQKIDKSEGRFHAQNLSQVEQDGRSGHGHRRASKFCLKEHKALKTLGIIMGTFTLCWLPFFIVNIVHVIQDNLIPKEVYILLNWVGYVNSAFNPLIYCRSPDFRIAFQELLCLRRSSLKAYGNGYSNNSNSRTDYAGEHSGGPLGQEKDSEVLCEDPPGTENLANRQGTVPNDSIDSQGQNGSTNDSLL
Method: as §1, §2, §3

[4] = molecular target: T1, beta-receptors of the heart; test: Heart frequency increase before and after beta-blockade with Inderal; type: in vivo, cat; conditions: 0.01 mg/kg bodyweight i.v.
Method: as §2

cardiac beta-receptors = test: Chronotropic (heart frequency) and inotropic (maximum dP/dt) effects in reserpinized, anesthetized, vagotomized cat; type: in vivo
Method: Chronotropic (Heart Frequency) and Inotropic (Contractile Force) Effects
The mean blood pressure was regulated with an adjustable clamp around the descending aorta. All registrations were than able to be done at a constant pressure in aorta (afterload). The compounds were administered by infusion intravenously in increasing doses. The dose-response curves as regards the heart frequency and maximum dP/dt were constructed, from which the ED50 -values were estimated.
Maximum dP/dt is a measure of the contractile force of the heart, i.e. inotropy, but is influenced by changes in the heart frequency, filling pressure (preload) and aortic blood pressure (afterload). In this test, a comparison between inotropic and chronotropic effects can be done at the same heart frequency. Further, the aortic blood pressure is kept constant.

heart [5] = test: Repetitive ventricular response (RVR) / spontaneous arrhythmia in the anesthetized dog; type: in vivo
Description: Effects of Compound I and Ouabain On the Heart Contractility and Rhythmicity of the Anesthetized Dog
The object of the test was to compare compound I and oubain administered alone and in combination with each other to study the inotropic effect (maximum dP/dt in the left ventricle) and a possibly arrhythmic effect. The latter included an investigation of the ability of the compounds to cause repetitive ventricular response (RVR) when the heart was electrically stimulated via an electrode on the ventricle at the electrically vulnerable phase at the end of the T-wave. Klein et al. (M. Klein, N. S. Nejad, B. Lown, F. Hagemeijer and I. Blair, Circulation Research, 29, 635 (1971)) have shown that digitalis caused RVR at a dose which was about 70% of the dose giving spontaneous ventricular arrhythmias.
The dog was anesthetized with Mebumal® 30 mg/kg bodyweight i.v. Artificial respiration was applied. The sinus-node was electrocoagulated and the heart frequency was kept constant at 180 beats/minute in each test by electrical pacing of the auricle. Mean arterial blood pressure was registered from the carotis artery. ECG was registered during the test. Further, the pressure in the left ventricle was registered via a catheter inserted through the apex and connected to a pressure transducer. The intraventricular pressure curve was derivated to obtain maximum dP/dt which is a measure of the contractile force of the heart.
The test was started with a series of control registrations, whereupon the compounds were administered 3 times by infusion during five minutes and with an interval of 50 minutes between each infusion.
In the experiment with compound I only, the compound was administered in two doses of 10 μg/kg bodyweight and then one dose of 20 μg/kg bodyweight. Ouabain was given in 3 consecutive doses of 20 μg/kg bodyweight. In the combination test ouabain was first given in a dose of 20 μg/kg bodyweight followed by two doses of compound I of 10 and 20 μg/kg bodyweight, respectively.

heart [6] = test: Ventricular arrhythmia in dogs after two-stage ligation of the left anterior coronary artery (third day post infarction); type: in vivo, dog
Method: Harris, A. S. Delayed Development of Ventricular Ectopic Rhythms following Coronary Occlusion, Cir. l, p 1318, (1950) described a method of two-stage ligation of the left anterior coronary artery in the dog. This method produces a multifocal ventricular arrhythmia that generally remains persistent on the first post ligation day (day 1-24 hours post infarct). The arrhythmia slowly disappears, and by the third post-ligation day the animal has essentially a normal sinus rhythm.
Maling, H. M. and Moran, N. C., Ventricular Arrhythmias Induced by Sympathominetic Amines in Unanesthetized Dogs Following Coronary Artery Occlussion, Cir.
METHODS, MATERIALS AND EXPERIMENTAL DESIGN
Seventeen adult female beagle dogs were used. Their ages ranged from one to three years. These animals were divided into two groups.
The first group consisted of 12 dogs and served as a control group. All animals were subjected to a two-stage ligation of the left anterior coronary artery. On the first post operative day these twelve animals were given various experimental antiarrhythmic agents as part of a routine testing procedure. It should be noted that, due to the nature of these agents, there would be no test drug or only trace amounts of test drug in the blood on day 3, and these amounts would cause little or no change on the outcome of a third day test. It should also be noted that all twelve of these animals has at least 85% ventricular ectopic beats on the morning after surgery in order to be accepted for testing.
On the third day post infarction the dogs were suspended in a standing position in a canvas sling. No anesthesia or sedation was used. ECGs were recorded as well as blood pressure. After a control period, an infusion of 20 μg/kg min. of 1-norepinephrine was begun using a Harvard infusion/withdrawal pump. This infusion lasted 120 minutes.
These five animals were all subjected to a two stage ligation of the anterior descending coronary artery. On day 1 and day 2 each dog was suspended in a canvas sling in the standing position and ECG, blood pressure, and other physiologic measurements were taken. […]

SMILES: CC(C)NCC(O)COc1ccc(O)cc1 (stereo not drawn) [Compound I, 1-isopropylamino-3-(p-hydroxyphenoxy)-propanol-2]
- ED50 ([1]; cat, iv, read-out: ED50 Heart Frequency): 6 µg/kg
- potency relative to isoprenaline, chronotropic effect ([1]; isoprenaline = 1, cat i.v.): about 1/100
- Selectivity: ED50 Vasodilatation / ED50 Heart Frequency [2]: > 100
- ED50 [3]: > 1000 µg/kg
- increase of heart frequency, given after Inderal ([4]; after 0.2 mg/kg i.v. Inderal): 10 beats/minute
- increase of heart frequency, given before Inderal ([4]; before Inderal, average): 60 beats/minute
- auricle pressure (filling pressure) (cardiac beta-receptors; cat, i.v. infusion): decreased
- affinity to cardiac beta-receptors giving inotropic versus chronotropic effects (in words) (cardiac beta-receptors; in vivo): higher affinity to cardiac beta-receptors, which give inotropic effects, than to beta-receptors in the sinus-node region, which give chronotropic effects
- RVR or spontaneous arrhythmia (in words) (heart [5]; compound I 10 and 20 μg/kg bodyweight): did not in any case cause RVR or spontaneous arrhythmia
- arrhythmogenic effect in relation to inotropic effect, versus ouabain (in words) (heart [5]; dog, in vivo): evidently less arrhythmogenic effect than ouabain
- ectopic activity in postdrug observation period (heart [6]; 60 minutes after compound I infusion): essentially no ectopic activity
- arrhythmogenic effect (in words) (heart [6]; compound I 1.0 mg/kg/min i.v. for twenty minutes, day 3 post infarct): not arrhythmogenic; also recorded: the few ectopic beats seen during the predrug control were slightly suppressed; also recorded: lacks arrhythmogenic properties
